Reference: US9380783B2, “Herbicidal composition” (priority 2012, dated 2016)

Key:
Assay type in all cases: in vivo
[1] = tested on: prickly sida (Sida spinosa L.); assay: Test Example 4: soil treatment, prickly sida pot test; conditions: read-out: Growth inhibition rate of prickly sida (%) Measured value
Experimental: (§1) Upland field soil was put into a 1/300,000 ha pot, and seeds of prickly sida (Sida spinosa L.) were sown. On the next day, predetermined amounts of the above formulations respectively containing nicosulfuron, prosulfuron, dicamba and bicyclopyrone were diluted with water (in an amount corresponding to 1,000 L/ha) and applied for soil treatment by a small sprayer.

[2] = tested on: ivy-leaved morningglory (Ipomoea hederacea (L.) Jacq.); assay: Test Example 7: soil treatment, ivy-leaved morningglory pot test; conditions: read-out: Growth inhibition rate of ivy-leaved morningglory (%) Measured value
Experimental: as §1, with “ivy-leaved morningglory (Ipomoea hederacea (L.) Jacq.)” for “prickly sida (Sida spinosa L.)”, “prosulfuron” for “prosulfuron, dicamba”

[3] = tested on: velvetleaf (Abutilon theophrasti Medic.); assay: Test Example 11: foliar treatment, velvetleaf pot test; conditions: read-out: Growth inhibition rate of velvetleaf (%) Measured value
Experimental: Upland field soil was put into a 1/1,000,000 ha pot, and seeds of velvetleaf (Abutilon theophrasti Medic.) were sown. When the velvetleaf reached 5.0 to 5.3-leaf stage, predetermined amounts of the above formations respectively containing nicosulfuron, prosulfuron, dicamba, bromoxynil-octanoate and bicyclopyrone were diluted with water (in an amount corresponding to 300 L/ha) and applied for foliar treatment by a small sprayer.

[4] = tested on: korean lespedeza (Kummerowia stipulacea (Maxim.) Makino); assay: Test Example 8: soil treatment, korean lespedeza pot test; conditions: read-out: Growth inhibition rate of korean lespedeza (%) Measured Value
Experimental: as §1, with “korean lespedeza (Kummerowia stipulacea (Maxim.) Makino)” for “prickly sida (Sida spinosa L.)”, “prosulfuron” for “prosulfuron, dicamba”

[5] = tested on: common lespedeza (Lespedeza striata (Thunb.) Hook. et Arn.); assay: Test Example 10: foliar treatment, common lespedeza pot test; conditions: Kummerowia striata, foliar treatment at 4.0-leaf stage, 14th day after treatment, read-out: Growth inhibition rate of common lespedeza (%) Measured value
Experimental: (§2) Upland field soil was put into a 1/1,000,000 ha pot, and seeds of common lespedeza (Lespedeza striata (Thunb.) Hook. et Arn.) were sown. When the common lespedeza reached 4.0-leaf stage, predetermined amounts of the above formulations respectively containing nicosulfuron, prosulfuron and dicamba were diluted with water (in an amount corresponding to 300 L/ha) and applied for foliar treatment by a small sprayer.

[6] = tested on: wild oat (Avena fatua L.); assay: Test Example 3: soil treatment, wild oat pot test; conditions: 28th day after treatment, read-out: Growth inhibition rate of wild oat (%) Measured value
Excerpt: (§3) Upland field soil was put into a 1/300,000 ha pot, and seeds of wild oat (Avena fatua L.) were sown. […] On the 28th day after treatment, the state of growth of the wild oat was visually observed to determine the growth inhibition rate (%).

[7] = tested on: annual ragweed (Ambrosia artemisiifolia L.); assay: Test Example 9: foliar treatment, annual ragweed pot test; conditions: foliar treatment at 6.0 to 8.0-leaf stage, 14th day after treatment, read-out: Growth inhibition rate of annual ragweed (%) Measured value
Experimental: as §2, with “annual ragweed (Ambrosia artemisiifolia L.)” for “common lespedeza (Lespedeza striata (Thunb.) Hook. et Arn.)”, “annual ragweed” for “common lespedeza”, “6.0 to 8.0-leaf” for “4.0-leaf”, “mesotrione” for “dicamba”
On the 14th day after treatment, the state of growth of the annual ragweed was visually observed to determine the growth inhibition rate (%). The growth inhibition rate (%) (measured value) and the growth inhibition rate (%) calculated in the same manner as in the above Test Example 1 are shown in Table 9.

[8] = tested on: black nightshade (Solanum nigrum L.); assay: Test Example 5: soil treatment, black nightshade pot test; conditions: 28th day after treatment, read-out: Growth inhibition rate of black nightshade (%) Measured value
Excerpt: Upland field soil was put into a 1/300,000 ha pot, and seeds of black nightshade (Solanum nigrum L.) were sown. […] On the 28th day after treatment, the state of growth of the black nightshade was visually observed to determine the growth inhibition rate (%).

[9] = tested on: sunn-hemp (Crotalaria juncea L.); assay: Test Example 1: soil treatment, sunn-hemp pot test; conditions: 28th day after treatment, read-out: Growth inhibition rate of sunn-hemp (%) Measured value
Excerpt: On the 28th day after treatment, the state of growth of the sunn-hemp was visually observed to determine the growth inhibition rate (%) in accordance with the following evaluation standard. The growth inhibition rate (%) (measured value) and the growth inhibition rate (%) (calculated value) calculated by the Colby's formula are shown in Table 1.

[10] = tested on: annual ragweed (Ambrosia artemisiifolia L.); assay: Test Example 6: soil treatment, annual ragweed pot test; conditions: 28th day after treatment, read-out: Growth inhibition rate of annual ragweed (%) Measured value
Experimental: as §1, with “annual ragweed (Ambrosia artemisiifolia” for “prickly sida (Sida spinosa”, “prosulfuron” for “prosulfuron, dicamba”, “bromoxynil-octanoate” for “bicyclopyrone”

[11] = tested on: wild oat (Avena fatua L.); assay: Test Example 2: soil treatment, wild oat pot test; conditions: 28th day after treatment, read-out: Growth inhibition rate of wild oat (%) Measured value
Excerpt: as §3

[12] = soil treatment, 28th day after treatment
[13] = dose 2.5 g/ha, soil treatment, 28th day after treatment
[14] = dose 100 g/ha, soil treatment, 28th day after treatment

Work on `COCCOCc1nc(C(F)(F)F)ccc1C(=O)C1=C(O)C2CCC(C2)C1=O` (centres unmarked) [Bicyclopyrone, 4-hydroxy-3-{2-[(2-methoxyethoxy)methyl]-6-(trifluoromethyl)-3-pyridylcarbonyl}bicyclo[3.2.1]oct-3-en-2-one] yielded an inhibition at 25 g/ha ([1]; soil) of 25%, an inhibition at 25 g/ha ([2]; soil) of 5% and an inhibition at 400 g/ha ([2]; soil) of 25%. For the same compound, the inhibition at 100 g/ha ([3]; foliar) was 40% and the inhibition at 400 g/ha ([4]; soil) was 78%.
In the case of `COc1c(Cl)ccc(Cl)c1C(=O)O` [Dicamba, dicamba], the inhibition at 50 g/ha [1, 12] is reported as 0%, the inhibition at 150 g/ha ([1]; dose 150 g/ha, soil treatment, 28th day after treatment) is reported as 20% and the inhibition at 400 g/ha ([1]; dose 400 g/ha, soil treatment, 28th day after treatment) is reported as 40%. The inhibition at 100 g/ha ([5]; dose 100 g/ha) was 23%, the inhibition at 150 g/ha ([5]; dose 150 g/ha) was 50% and the inhibition at 150 g/ha ([3]; dose 150 g/ha, foliar treatment at 5.0 to 5.3-leaf stage, 20th day after treatment) was 8%.
`COc1nc(C)nc(NC(=O)NS(=O)(=O)c2ccccc2CCC(F)(F)F)n1` [Prosulfuron, 1-(4-methoxy-6-methyl-1,3,5-triazin-2-yl)-3-[2-(3,3,3-trifluoropropyl)phenylsulfonyl]urea] showed an inhibition at 15 g/ha ([6]; dose 15 g/ha) of 0%, an inhibition at 2.5 g/ha [1, 13] of 20% and an inhibition at 15 g/ha ([1]; dose 15 g/ha, soil treatment, 28th day after treatment) of 20%. It also gave an inhibition at 50 g/ha [1, 12] of 40%, an inhibition at 50 g/ha ([2]; dose 50 g/ha, soil treatment, 14th day after treatment) of 50% and an inhibition at 10 g/ha ([7]; dose 10 g/ha) of 55%. The inhibition at 15 g/ha ([7]; dose 15 g/ha) was 53%, the inhibition at 50 g/ha ([8]; dose 50 g/ha) was 20% and the inhibition at 50 g/ha ([9]; dose 50 g/ha) was 60%. It also gave an inhibition at 10 g/ha ([5]; dose 10 g/ha) of 10%, an inhibition at 15 g/ha ([5]; dose 15 g/ha) of 13% and an inhibition at 2.5 g/ha ([10]; dose 2.5 g/ha) of 78%. For the same compound, the inhibition at 15 g/ha ([10]; dose 15 g/ha) was 93%, the inhibition at 2.5 g/ha ([11]; dose 2.5 g/ha) was 0% and the inhibition at 2.5 g/ha [4, 13] was 50%.
`CCCCCCCC(=O)Oc1c(Br)cc(C#N)cc1Br` [Bromoxynil-octanoate, bromoxynil-octanoate] showed an inhibition at 100 g/ha ([8]; dose 100 g/ha) of 0%, an inhibition at 500 g/ha ([8]; dose 500 g/ha) of 0% and an inhibition at 100 g/ha [10] of 0%. It also gave an inhibition at 200 g/ha ([10]; dose 200 g/ha) of 0%, an inhibition at 500 g/ha ([10]; dose 500 g/ha) of 0% and an inhibition at 200 g/ha ([3]; dose 200 g/ha, foliar treatment at 5.0 to 5.3-leaf stage, 20th day after treatment) of 5%.
`CS(=O)(=O)c1ccc(C(=O)C2C(=O)CCCC2=O)c([N+](=O)[O-])c1` [Mesotrione, 2-(4-mesyl-2-nitrobenzoyl)cyclohexane-1,3-dione] gave an inhibition at 50 g/ha ([6]; dose 50 g/ha) of 0%, an inhibition at 75 g/ha ([7]; dose 75 g/ha) of 25% and an inhibition at 150 g/ha ([9]; dose 150 g/ha) of 30%. For the same compound, the inhibition at 25 g/ha ([11]; dose 25 g/ha) was 0% and the inhibition at 150 g/ha ([11]; dose 150 g/ha) was 0%.
With `COc1cc(OC)nc(NC(=O)NS(=O)(=O)c2ncccc2C(=O)N(C)C)n1` [Nicosulfuron, 2-(4,6-dimethoxypyrimidin-2-ylcarbamoylsulfamoyl)-N,N-dimethylnicotinamide] the inhibition at 30 g/ha ([6]; dose 30 g/ha) was 70%, the inhibition at 10 g/ha ([1]; dose 10 g/ha, soil treatment, 28th day after treatment) was 10% and the inhibition at 30 g/ha ([1]; dose 30 g/ha, soil treatment, 28th day after treatment) was 10%. For the same compound, the inhibition at 100 g/ha [1, 14] was 20%, the inhibition at 10 g/ha ([2]; dose 10 g/ha, soil treatment, 14th day after treatment) was 0% and the inhibition at 30 g/ha ([7]; dose 30 g/ha) was 0%. For the same compound, the inhibition at 10 g/ha ([8]; dose 10 g/ha) was 20%, the inhibition at 10 g/ha ([9]; dose 10 g/ha) was 30% and the inhibition at 30 g/ha ([5]; dose 30 g/ha) was 5%. For the same compound, the inhibition at 30 g/ha ([10]; dose 30 g/ha) was 0%, the inhibition at 100 g/ha [10] was 0% and the inhibition at 100 g/ha ([11]; dose 100 g/ha) was 80%. It also gave an inhibition at 100 g/ha [4, 14] of 30%.
